One data set deals with PSD95. Kind of data set: Western blot of PSD95 in cortex and hippocampus after CCI. Format: in vivo, rat. Particulars: 20 mg/kg, first injection 2 h post-trauma, day 35, ipsilateral injured cortex and hippocampus, contralateral cortex. As for the experimental part:
FIG. 20: PSD-95 expression, 35 days after TBI, in the left-uninjured and right-injured hemispheres (A: cortex and B: hippocampus) of CCI-injured animals, receiving either vehicle (D0) or MAP4343 (D1: 10 mg/kg and D2:20 mg/kg), 2 h after injury.
(§1) Samples were analyzed by Western-blot at day 35 post-trauma (D35) to evaluate the effects of MAP4343 on: MAP2 (the target of MAP4343 and a modulator of microtubule function), the post-synaptic markers PSD95 and spinophilin, the pre-synaptic marker synaptophysin, and the axonal growth/integrity marker GAP43.
(§2) Western blot was performed on cortex and hippocampus of TBI-injured animals receiving the first injection of MAP4343 (at 10 mg/kg or 20 mg/kg) or vehicle (sesame oil) 2 h after injury.
(§3) The expression level of various neuronal brain markers of plasticity was measured at day 35 post-trauma by western-blots in the cortex and hippocampus of left uninjured and right injured cerebral hemispheres of CCI traumatized animals receiving either vehicle (sesame oil, CCI-D0) or 3-methoxy-PREG (MAP4343) at 10 mg/kg (CCI-D1) or 20 mg/kg (CCI-D2), with first MAP4343 injection 2 h post-trauma.
(In general: Immunoblotting shows a protein as a band on a membrane.)

The nature of data set [1]: In vivo toxicity, daily injection for one month. Also noted: species or system rat. Particulars: rats, daily injection for one month of 48 mg/kg.
Data set [2] addresses T1, human progesterone receptor(PR) (Homo sapiens, UniProt P06401).
T1 construct: expressed in transfected cells; host or cells: HEK293T
T1 sequence (P06401 1-933): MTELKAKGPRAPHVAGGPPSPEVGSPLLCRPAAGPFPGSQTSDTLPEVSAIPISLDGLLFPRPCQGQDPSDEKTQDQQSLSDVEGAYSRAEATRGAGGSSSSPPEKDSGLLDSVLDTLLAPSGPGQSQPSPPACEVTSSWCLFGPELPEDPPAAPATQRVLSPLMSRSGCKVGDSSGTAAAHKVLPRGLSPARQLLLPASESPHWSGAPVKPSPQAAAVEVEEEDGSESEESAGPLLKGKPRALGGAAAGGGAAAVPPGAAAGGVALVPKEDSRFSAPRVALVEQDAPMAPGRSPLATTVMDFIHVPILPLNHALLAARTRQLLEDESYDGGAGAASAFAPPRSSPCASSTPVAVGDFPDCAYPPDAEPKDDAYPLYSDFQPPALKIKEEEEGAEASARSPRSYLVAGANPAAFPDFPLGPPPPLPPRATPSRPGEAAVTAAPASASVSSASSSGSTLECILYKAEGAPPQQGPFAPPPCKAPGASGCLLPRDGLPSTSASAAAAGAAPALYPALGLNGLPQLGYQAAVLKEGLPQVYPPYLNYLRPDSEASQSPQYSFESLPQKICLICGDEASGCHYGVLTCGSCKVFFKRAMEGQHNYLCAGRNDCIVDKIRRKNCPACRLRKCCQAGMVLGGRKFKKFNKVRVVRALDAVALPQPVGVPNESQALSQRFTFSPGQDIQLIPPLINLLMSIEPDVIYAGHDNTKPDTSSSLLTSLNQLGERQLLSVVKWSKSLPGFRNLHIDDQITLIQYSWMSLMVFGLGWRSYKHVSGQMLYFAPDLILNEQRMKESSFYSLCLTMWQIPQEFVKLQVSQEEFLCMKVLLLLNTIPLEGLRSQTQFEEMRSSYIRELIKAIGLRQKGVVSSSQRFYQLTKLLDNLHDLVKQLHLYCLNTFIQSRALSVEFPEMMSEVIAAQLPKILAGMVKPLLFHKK
Kind of data set: Test of progesterone receptor agonist activity (luciferase transactivation, HEK293T). The format is cell-based. Particulars: increasing amounts, 24 hours. As for the experimental part: (§4) The main experimental setting used is the following: HEK293T cells were transiently transfected, using calcium phosphate precipitation technology, with expression vectors pSG5hPR (which permits expression of human progesterone receptor(PR)), pFC31-luc (contains the luciferase gene under the control of the MMTV promoter, which is in turn activated by binding of a progestin to progesterone receptor) and pcbetagal (which permits expression of betagalactosidase), and cultured during 24 hours with increasing amounts of various compositions: • 1. […] Test of progesterone receptor […] activity: transfected cells were cultured with progesterone (1 nM) and increasing amounts of RU486 (a well-known progesterone receptor antagonist) or 3-methoxy-pregnenolone. • With this setting, a compound with progesterone receptor antagonist activity competes with progesterone for the occupation of progesterone receptor and results in a progressive loss of transactivation activity when the amount of this compound is increased compared to progesterone.

Data set [3] addresses T1, human progesterone receptor(PR). The data set can be described thus: Test of progesterone receptor antagonist activity (luciferase transactivation, HEK293T). Format: cell-based. Particulars: with progesterone (1 nM), increasing amounts. As for the experimental part:
as §4

The test system of another data set is PC12 cell line. The data set can be described thus: Cellular toxicity test. Format: cell-based, rat. Particulars: concentrations as high as solubility limits (approximately 50 μM). The protocol: Cellular toxicity tests are carried out routinely on the PC12 cell line.
A further data set concerns MAP2. The data set can be described thus: Western blot of MAP2 in cortex and hippocampus after CCI. Particulars: 20 mg/kg, first injection 2 h post-trauma, day 35, injured and non-injured cortex and hippocampus. Format: in vivo, rat. As for the experimental part:
FIG. 19: MAP-2 expression, 35 days after TBI, in the left-uninjured and right-injured hemispheres (A: cortex and B: hippocampus) of CCI-injured animals, receiving either vehicle (D0) or MAP4343 (D1: 10 mg/kg and D2: 20 mg/kg), 2 h after injury.
as §1, §2, §3

The target of data set [4] is Glucorticoid Receptor (GR) (Homo sapiens, UniProt P04150). The data set can be described thus: Radioligand binding assay, GR. Particulars: MAP4343 10 μM; 3 nM [^3H] Dexamethasone; Human HeLa S3 cells. As for the experimental part: Binding affinity of 3-methoxy-PREG (MAP4343) for receptors of steroid hormones was evaluated using radioligand binding assays.
A further data set is described as follows: Solubility limit. The format is physicochemical. Particulars: read-out: solubility limits.
In another data set the test system is spinophilin. Kind of data set: Western blot of spinophilin in cortex and hippocampus after CCI. The format is in vivo, rat. Particulars: 10 mg/kg or 20 mg/kg, first injection 2 h post-trauma, day 35, injured cortex and hippocampus and contralaterally. As for the experimental part: FIG. 21: Spinophilin expression, 35 days after TBI, in the left-uninjured and right-injured hemispheres (A: cortex and B: hippocampus) of CCI-injured animals, receiving either vehicle (D0) or MAP4343 (D1: 10 mg/kg and D2: 20 mg/kg), 2 h after injury.
as §1, §2, §3

Values after ≈ are worked out from the molar mass of the structure shown.

Data on one compound can be found in patent US20140045807A2, “THE USE OF 3-METHOXY-PREGNENOLONE FOR THE PREPARATION OF A DRUG FOR TREATING A TRAUMATIC BRAIN INJURY” (priority 2004, published 2014).

Chain of Glucorticoid Receptor (GR) (P04150 whole entry): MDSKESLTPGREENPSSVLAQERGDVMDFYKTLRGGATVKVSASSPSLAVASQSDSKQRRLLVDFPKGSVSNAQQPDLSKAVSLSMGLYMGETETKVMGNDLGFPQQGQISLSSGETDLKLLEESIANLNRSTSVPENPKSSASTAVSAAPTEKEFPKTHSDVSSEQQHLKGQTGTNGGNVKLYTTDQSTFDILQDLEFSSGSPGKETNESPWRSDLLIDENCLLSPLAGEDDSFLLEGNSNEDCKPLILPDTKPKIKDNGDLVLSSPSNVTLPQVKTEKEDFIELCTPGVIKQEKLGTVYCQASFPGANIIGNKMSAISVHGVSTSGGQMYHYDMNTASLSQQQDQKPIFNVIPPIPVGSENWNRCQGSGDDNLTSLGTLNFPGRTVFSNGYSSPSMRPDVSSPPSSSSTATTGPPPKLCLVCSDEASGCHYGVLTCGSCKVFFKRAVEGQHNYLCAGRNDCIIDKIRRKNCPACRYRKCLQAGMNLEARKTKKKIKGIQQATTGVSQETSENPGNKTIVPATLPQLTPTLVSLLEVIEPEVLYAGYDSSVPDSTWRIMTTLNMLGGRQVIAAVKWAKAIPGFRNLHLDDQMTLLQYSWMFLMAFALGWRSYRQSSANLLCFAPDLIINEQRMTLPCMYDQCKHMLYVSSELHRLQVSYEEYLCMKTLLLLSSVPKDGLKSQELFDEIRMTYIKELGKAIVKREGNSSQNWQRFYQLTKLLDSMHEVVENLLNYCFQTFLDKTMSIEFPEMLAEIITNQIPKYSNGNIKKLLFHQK

For the compound `CO[C@H]1CC[C@@]2(C)C(=CC[C@H]3[C@@H]4CC[C@H](C(C)=O)[C@@]4(C)CC[C@@H]32)C1` [3-methoxy-PREG, 3β-methoxy-pregna-5-ene-20-one], the PSD95 expression result in the data set on PSD95 is “increase in PSD95 expression”. Besides, in [1], the “average weight and behavior” value is recorded as “affected neither average weight nor behavior”. Further, the “progesterone receptor agonist (transactivation) activity” value in data set [2] is recorded as “does not have progesterone receptor agonist activity”. Moreover, in data set [3], the “progesterone receptor antagonist activity” value is “weak progesterone receptor antagonist”. In the data set with PC12 cell line, the cellular toxicity entry is reported as “do not demonstrate toxicity”. Besides, in the data set on MAP2, the MAP-2 expression result is recorded as “strong increase”. In [4], the “% inhibition of specific binding” value was below 25%. Besides, the solubility (in general, how much of the substance goes into solution per volume) in “Solubility limit” was around 50 µM (≈ 16.5 µg/mL). The spinophilin expression entry with spinophilin is “increase in spinophilin expression”.
